Results published in patent publication US8846570B2, “Herbicidal compositions comprising 4-amino-3-chloro-5-fluoro-6-(4-chloro-2-fluoro-3-methoxyphenyl)pyridine-2-carboxylic acid or a derivative thereof and microtubule inhibiting herbicides” (Dow AgroSciences LLC, priority 2012, dated 2014).

Key:
Type in all cases: in vivo
[1] = tested on: Cyperus difformis L. (CYPDI); experiment: Postemergence foliar-applied, direct seeded rice, greenhouse: visual weed control; settings: 20 DAA; 5.3 g ae/ha
Description: (§1) Seeds or nutlets of the desired test plant species were planted in a soil matrix prepared by mixing a loam or sandy loam soil (e.g., 28.6 percent silt, 18.8 percent clay, and 52.6 percent sand, with a pH of about 5.8 and an organic matter content of about 1.8 percent) and calcareous grit in an 80 to 20 ratio. The soil matrix was contained in plastic pots with a volume of 1 quart and a surface area of 83.6 cm^2. […] The plants were grown for 8-22 days in a greenhouse with an approximate 14 h photoperiod which was maintained at about 29° C. during the day and 26° C. during the night. Nutrients (Peters Excel® 15-5-15 5-Ca 2-Mg and iron chelate) were applied in the irrigation solution as needed and water was added on a regular basis. Supplemental lighting was provided with overhead metal halide 1000-Watt lamps as necessary. The plants were employed for testing when they reached the first through fourth true leaf stage.
(§2) Forms of compound A were applied on an acid equivalent basis.
(§3) For treatments comprised of formulated compounds, measured amounts of compounds were placed individually in 25 mL glass vials and diluted in a volume of 1.25% (v/v) Agri-Dex® crop oil concentrated to obtain 12× stock solutions. […] Application solutions were prepared by adding an appropriate amount of each stock solution (e.g., 1 mL) and diluted to the appropriate final concentrations with the addition of 10 mL of an aqueous mixture of 1.25% (v/v) crop oil concentrate so that the final spray solutions contained 1.25+/−0.05% (v/v) crop oil concentrate.
(§4) As required, additional water and/or 97:3 v/v acetone/DMSO was added to individual application solutions so that the final acetone and DMSO concentrations of the application solutions being compared were 8.1% and 0.25%, respectively.
(§5) All stock solutions and applications solutions were visually inspected for compound compatibility prior to application. Spray solutions were applied to the plant material with an overhead Mandel track sprayer equipped with a 8002E nozzles calibrated to deliver 187 L/ha over an application area of 0.503 m^2 at a spray height of 18 to 20 inches (46 to 50 cm) above average plant canopy height. Control plants were sprayed in the same manner with the solvent blank.
(§6) The treated plants and control plants were placed in a greenhouse as described above and watered by sub-irrigation to prevent wash-off of the test compounds. After approximately 3 weeks, the condition of the test plants as compared with that of the untreated plants was determined visually and scored on a scale of 0 to 100 percent where 0 corresponds to no injury or growth inhibition and 100 corresponds to complete kill.
(§7) Colby's equation was used to determine the herbicidal effects expected from the mixtures (Colby, S. R. 1967. Calculation of the synergistic and antagonistic response of herbicide combinations. Weeds 15:20-22.).
(§8) The following equation was used to calculate the expected activity of mixtures containing two active ingredients, A and B: Expected=A+B−(A×B/100)

[2] = tested on: Cyperus esculentus L. (CYPES); experiment: as above; settings: 20 DAA
Description: as §1, §2, §3, §4, §5, §6, §7, §8

[3] = tested on: Schoenoplectus juncoides (Roxb.) Palla (SCPJU); experiment: as above; settings: 20 DAA; 5.3 g ae/ha
Description: as §1, §2, §3, §4, §5, §6, §7, §8

[4] = tested on: Amaranthus retroflexus L. (AMARE); experiment: Postemergence foliar-applied, cereal crops, greenhouse: visual weed control; settings: 21 DAA
Description: (§9) Seeds of the desired test plant species were planted in Sun Gro MetroMix® 306 planting mixture, which typically has a pH of 6.0 to 6.8 and an organic matter content of about 30 percent, in plastic pots with a surface area of 103.2 square centimeters (cm^2). When required to ensure good germination and healthy plants, a fungicide treatment and/or other chemical or physical treatment was applied. The plants were grown for 7-36 days in a greenhouse with an approximate 14 hour photoperiod which was maintained at about 18° C. during the day and about 17° C. during the night. Nutrients and water were added on a regular basis and supplemental lighting was provided with overhead metal halide 1000-Watt lamps as necessary. The plants were employed for testing when they reached the second or third true leaf stage.
(§10) Treatments consisted of the benzyl ester of 4-amino-3-chloro-5-fluoro-6-(4-chloro-2-fluoro-3-methoxy-phenyl)pyridine-2-carboxylic acid (Compound A), formulated as an SC, a second cereal herbicide alone and then both in combination.
(§11) Other herbicidal components were applied on an active ingredient basis and included microtubule-inhibiting herbicides.
(§12) Measured aliquots of benzyl ester of 4-amino-3-chloro-5-fluoro-6-(4-chloro-2-fluoro-3-methoxy-phenyl)pyridine-2-carboxylic acid (Compound A) were placed in 25 milliliter (mL) glass vials and diluted in a volume of 1.25% (v/v) Agri-Dex® crop oil concentrate to obtain stock solutions. Compound requirements are based upon a 12 mL application volume at a rate of 187 liters per hectare (L/ha). Spray solutions of the second cereal herbicide and experimental compound mixtures were prepared by adding the stock solutions to the appropriate amount of dilution solution to form 12 mL spray solution with active ingredients in two- and three-way combinations. Formulated compounds were applied to the plant material with an overhead Mandel track sprayer equipped with an 8002E nozzle calibrated to deliver 187 L/ha over an application area of 0.503 square meters (m^2) at a spray height of 18 inches (46 cm) above average plant canopy. Control plants were sprayed in the same manner with the solvent blank.
(§13) The treated plants and control plants were placed in a greenhouse as described above and watered by sub-irrigation to prevent wash-off of the test compounds. After 20-22 days, the condition of the test plants as compared with that of the control plants was determined visually and scored on a scale of 0 to 100 percent where 0 corresponds to no injury and 100 corresponds to complete kill.
as §7, §8

[5] = tested on: Chenopodium album L. (CHEAL); experiment: as above; settings: 21 DAA
Description: as §9, §10, §11, §12, §13, §7, §8

[6] = tested on: Cirsium arvense (L.) Scop. (CIRAR); experiment: as above; settings: 21 DAA
Description: as §9, §10, §11, §12, §13, §7, §8

[7] = tested on: Kochia scoparia (L.) Schrad. (KCHSC); experiment: as above; settings: 21 DAA
Description: as §9, §10, §11, §12, §13, §7, §8

[8] = tested on: Lamium purpureum L. (LAMPU); experiment: as above; settings: 21 DAA
Description: as §9, §10, §11, §12, §13, §7, §8

[9] = tested on: Papaver rhoeas L. (PAPRH); experiment: as above; settings: 21 DAA
Description: as §9, §10, §11, §12, §13, §7, §8

[10] = tested on: Sinapis arvensis L. (SINAR); experiment: as above; settings: 21 DAA
Description: as §9, §10, §11, §12, §13, §7, §8

[11] = tested on: Stellaria media (L.) Vill. (STEME); experiment: as above; settings: 21 DAA
Description: as §9, §10, §11, §12, §13, §7, §8

Structure (SMILES): COc1c(Cl)ccc(-c2nc(C(=O)O)c(Cl)c(N)c2F)c1F [Compound A Acid, 4-amino-3-chloro-6-(4-chloro-2-fluoro-3-methoxyphenyl)-5-fluoropyridine-2-carboxylic acid]
- Visual Weed Control (%) Obs [1]: 80%
- Visual Weed Control (%) Obs ([2]; 5.3 g ae/ha): 0%
- Visual Weed Control (%) Obs ([2]; 10.6 g ae/ha): 90%
- Visual Weed Control (%) Obs [3]: 25%

Structure (SMILES): COc1c(Cl)ccc(-c2nc(C(=O)OCc3ccccc3)c(Cl)c(N)c2F)c1F [Compound A Benzyl Ester, benzyl ester of 4-amino-3-chloro-5-fluoro-6-(4-chloro-2-fluoro-3-methoxy-phenyl)pyridine-2-carboxylic acid]
- Visual Weed Control (%) Obs ([4]; 2.5 g ai/ha): 20%
- Visual Weed Control (%) Obs ([4]; 5 g ai/ha): 38%
- Visual Weed Control (%) Obs ([5]; 2.5 g ai/ha): 50%
- Visual Weed Control (%) Obs ([5]; 5 g ai/ha): 58%
- Visual Weed Control (%) Obs ([6]; 2.5 g ai/ha): 48%
- Visual Weed Control (%) Obs ([6]; 5 g ai/ha): 39%
- Visual Weed Control (%) Obs ([6]; 10 g ai/ha): 60%
- Visual Weed Control (%) Obs ([7]; 2.5 g ai/ha): 20%
- Visual Weed Control (%) Obs ([7]; 5 g ai/ha): 41%
- Visual Weed Control (%) Obs ([7]; 10 g ai/ha): 62%
- Visual Weed Control (%) Obs ([8]; 2.5 g ai/ha): 80%
- Visual Weed Control (%) Obs ([8]; 5 g ai/ha): 86%
- Visual Weed Control (%) Obs ([8]; 10 g ai/ha): 94%
- Visual Weed Control (%) Obs ([9]; 2.5 g ai/ha): 48%
- Visual Weed Control (%) Obs ([9]; 5 g ai/ha): 28%
- Visual Weed Control (%) Obs ([9]; 10 g ai/ha): 35%
- Visual Weed Control (%) Obs ([10]; 2.5 g ai/ha): 70%
- Visual Weed Control (%) Obs ([10]; 5 g ai/ha): 73%
- Visual Weed Control (%) Obs ([11]; 2.5 g ai/ha): 25%
- Visual Weed Control (%) Obs ([11]; 5 g ai/ha): 25%
- Visual Weed Control (%) Obs ([11]; 10 g ai/ha): 27%

Structure (SMILES): CCC(CC)Nc1c([N+](=O)[O-])cc(C)c(C)c1[N+](=O)[O-] [Pendimethalin, N-(1-ethylpropyl)-3,4-dimethyl-2,6-dinitrobenzenamine, reference compound]
- Visual Weed Control (%) Obs ([4]; 150 g ai/ha): 3%
- Visual Weed Control (%) Obs ([4]; 300 g ai/ha): 5%
- Visual Weed Control (%) Obs ([5]; 150 g ai/ha): 0%
- Visual Weed Control (%) Obs ([5]; 300 g ai/ha): 0%
- Visual Weed Control (%) Obs ([6]; 150 g ai/ha): 10%
- Visual Weed Control (%) Obs ([6]; 300 g ai/ha): 10%
- Visual Weed Control (%) Obs ([6]; 600 g ai/ha): 10%
- Visual Weed Control (%) Obs ([7]; 150 g ai/ha): 10%
- Visual Weed Control (%) Obs ([7]; 300 g ai/ha): 10%
- Visual Weed Control (%) Obs ([7]; 600 g ai/ha): 57%
- Visual Weed Control (%) Obs ([8]; 150 g ai/ha): 0%
- Visual Weed Control (%) Obs ([8]; 300 g ai/ha): 25%
- Visual Weed Control (%) Obs ([8]; 600 g ai/ha): 53%
- Visual Weed Control (%) Obs ([9]; 150 g ai/ha): 18%
- Visual Weed Control (%) Obs ([9]; 300 g ai/ha): 38%
- Visual Weed Control (%) Obs ([9]; 600 g ai/ha): 75%
- Visual Weed Control (%) Obs ([10]; 150 g ai/ha): 3%
- Visual Weed Control (%) Obs ([10]; 300 g ai/ha): 5%
- Visual Weed Control (%) Obs ([11]; 150 g ai/ha): 3%
- Visual Weed Control (%) Obs ([11]; 300 g ai/ha): 5%
- Visual Weed Control (%) Obs ([11]; 600 g ai/ha): 17%
